Key:
[1] = test system: macrophage Cx43 hemichannel activities, RAW 264.7 cells; assay: Lucifer Yellow dye uptake, hemichannel permeability, calcium-depleted; type: cell-based, murine; settings: P5 20 μM, LPS 0.5 μg/ml, 16 h, LY 15 min, P < 0.05 versus +LPS
Text: Because connexon is the structural unit for both hemichannel (1 connexon) and gap junction (2 connexons from opposing cells), which are both permeable to similar molecular weight molecules, such as the Lucifer yellow (LY). Thus, the LY dye uptake could be used to determine the channel permeability of both hemichannel (as indicated by the rate of LY entry into the cells) and gap junction channels (as judged by the distance of intercellular LY diffusion). The LY dye uptake assay relied on the ability of this dye present in the extracellular milieu to cross the plasma membrane and became concentrated inside of the cell, which could be quantified by fluorescence microscopy. To determine the effects of Cx43 mimetic peptides on hemichannel permeability, RAW 264.7 cells were subjected to LPS stimulation (0.5 µg/ml, 16 h) before replacing the medium with fresh DMEM containing various Cx43 mimetic peptides, GAP26 (100 µM), TAT-GAP19 (200 µM) or P5 (20 µM). Following a brief incubation (15 min), EGTA (1 mM) was added to deplete free calcium prior to the addition of LY dye (1%). Fifteen min later, cells were fixed with 2% paraformaldehyde, and the number of LY-positive cells was counted. The ratio of LY-positive cells vs. total cell counts (DAPI staining) was used as the measurement of hemichannel permeability.

[2] = test system: Panx1 hemichannel permeability, macrophages; assay: Lucifer Yellow dye uptake in presence of calcium (Panx1 hemichannel permeability); type: cell-based
[3] = test system: Balb/c mice, polymicrobial sepsis (CLP); assay: CLP-induced sepsis survival; type: in vivo; settings: P5 8.0 mg/kg
Text: (§1) This study was approved and performed in accordance with the guidelines of the Institutional Animal Care and Use Committee of the Feinstein Institute for Medical Research, Manhasset, New York, USA (Animal Protocol #2008-033, Approval date: September 10, 2014). To evaluate the effect of various Cx43 mimetic peptides on sepsis lethality, a clinically relevant animal model of sepsis induced by cecal ligation and puncture (CLP) was employed. Briefly, the cecum of Balb/c mice was ligated at about 5 mm from the cecal tip, and then punctured once with a 22-gauge needle. GAP26, TAT-GAP19 or P5 peptides were administered intraperitoneally into mice at indicated doses and time points, and animal survival rates were monitored for up to 2 wks. The Kaplan-Meier method was used to compare the differences in mortality rates between groups.

[4] = test system: Cx43 gap junctions, NIH 3T3 fibroblasts; assay: Cx43 gap junction formation, immunostaining; type: cell-based; settings: P5 20 µM, overnight
Description: Primary peritoneal macrophages were isolated from Balb/c mice, stimulated with LPS or SAA for 6 h, and immunostained with an affinity-purified rabbit anti-Cx43 IgGs (1:1,000 dilution at 4 °C) as previously described. Non-immune NIH 3T3 cells were grown on glass coverslips to confluency to allow formation of gap junctional channels. The growth medium was changed to DMEM before an overnight incubation with P5 (20 µM). Cells were then fixed with 2% paraformaldehyde, incubated for 16 hr with a well-characterized affinity-purified rabbit anti-Cx43 IgGs as previously described. After extensive washing, cells were incubated with donkey anti-rabbit Alexa 488 (Invitrogen) for 1 hr at room temperature. The coverslips were subsequently mounted on glass slides using anti-fade medium and examined using an epi-fluorescence microscope.

[5] = test system: LPS-induced production of nitric oxide; assay: Nitric oxide production; type: cell-based; settings: data not shown
[6] = test system: TUNEL-positive cells, lungs of septic mice (CLP); assay: TUNEL staining of septic lungs; type: in vivo, Balb/c mice; settings: lungs at 24 h post CLP, at protective doses; 5–8 fields; P < 0.05 versus CLP
Text: as §1
Upper and lower lobe lung tissues were collected at 24 h post CLP, fixed in 4% paraformaldehyde, embedded in paraffin, and cut into 5 µm thick sections. […] Five to eight fields of view were randomly selected for each tissue section, and the number of TUNEL-positive green cells was expressed as an average of percentage of total DAPI-positive blue cells.

Cx43 EL2 peptide = assay: Surface Plasmon Resonance, Cx43 EL2 peptide; type: binding; settings: synthetic full-length EL2 peptide, data not shown

ENVCYD [P5, cysteine-containing Cx43 EL1 mimetic hexamer peptide, P5 (ENVCYD)]
effect on endotoxin-induced hemichannel activities (LY dye uptake) [1]: significantly inhibited the endotoxin-induced elevation of hemichannel activities
LY uptake in calcium-containing medium [2]: did not alter macrophage LY uptake in calcium-containing medium
animal survival rates (in words) ([3]; +2 h and +24 h after onset of sepsis, P < 0.05 versus CLP + Saline): significant increase in animal survival rates
animal survival ([3]; i.p., +2, +24 h post CLP, up to two weeks, saline 30%, P < 0.05, Kaplan-Meier): 85%
GJ formation (Cx43 punctate immunostaining) [4]: did not alter the punctate immunostaining profile of Cx43
LPS-induced production of nitric oxide [5]: did not affect the LPS-induced production of nitric oxide
TUNEL-positive cells in septic lungs [6]: significantly reduced the number of TUNEL-positive cells in septic lungs
binding to Cx43 EL2 peptide (Cx43 EL2 peptide): did not find evidence of P5 interacting

Reference: PMC5760527, “Connexin 43 Hemichannel as a Novel Mediator of Sterile and Infectious Inflammatory Diseases” (Scientific Reports, 2018)
